From patent publication US20240382629A1, “HETEROBIVALENT AND HOMOBIVALENT AGENTS TARGETING FIBROBLAST ACTIVATION PROTEIN ALPHA AND/OR PROSTATE-SPECIFIC MEMBRANE ANTIGEN” (The Johns Hopkins University, priority 2021, published 2024)
Values joined by “and” are separate entries in the source; they are usually repeats but may differ in a detail not shown here. Identical values can stand only once.

Assay: Biodistribution of representative compounds (Example 13), % ID/g in tissues of tumor-bearing mice
Type: in vivo, mouse
[1] = 30 min, 20 μCi per mouse (SA 6500 mCi/μmol)
[2] = 60 min + Blocker cold FAPI-04 (10 nmole, 6500-fold)
[3] = 60 min, 20 μCi per mouse (SA 6500 mCi/μmol)

## N#C[C@@H]1CCCN1C(=O)CNC(=O)c1ccnc2ccc(OCCCNC(=O)[C@@H](CC(=O)O)NC(=O)[C@@H](CC(=O)O)NC(=O)c3ccc([18F])nc3)cc12 [[^18F]JHU1221785]
[1]
  % ID/g Bladder (individual mouse): 0.93 % ID/g and 4.69 % ID/g
  % ID/g Blood (individual mouse): 5.98 % ID/g and 3.90 % ID/g
  % ID/g Brain (individual mouse): 0.14 % ID/g and 0.15 % ID/g
  % ID/g Fat (individual mouse): 0.21 % ID/g and 0.19 % ID/g
  % ID/g Femur (individual mouse): 2.78 % ID/g and 2.44 % ID/g
  % ID/g Heart (individual mouse): 2.51 % ID/g and 2.01 % ID/g
  % ID/g Kidney (individual mouse): 1.60 % ID/g and 3.33 % ID/g
  % ID/g Large intestine (individual mouse): 0.58 % ID/g and 0.86 % ID/g
  % ID/g Liver (individual mouse): 6.56 % ID/g and 8.08 % ID/g
  % ID/g Lung (individual mouse): 2.77 % ID/g and 2.53 % ID/g
  % ID/g Mean Bladder: 2.81 % ID/g
  % ID/g Mean Blood: 4.94 % ID/g
  % ID/g Mean Brain: 0.14 % ID/g
  % ID/g Mean Fat: 0.20 % ID/g
  % ID/g Mean Femur: 2.61 % ID/g
  % ID/g Mean Heart: 2.26 % ID/g
  % ID/g Mean Kidney: 2.47 % ID/g
  % ID/g Mean Large intestine: 0.72 % ID/g
  % ID/g Mean Liver: 7.32 % ID/g
  % ID/g Mean Lung: 2.65 % ID/g
  % ID/g Mean Muscle: 0.96 % ID/g
  % ID/g Mean Pancreas: 2.31 % ID/g
  % ID/g Mean Salivary gland: 2.93 % ID/g
  % ID/g Mean Small intestine: 2.49 % ID/g
  % ID/g Mean Spleen: 1.00 % ID/g
  % ID/g Mean Stomach: 0.82 % ID/g
  % ID/g Mean Tumor: 1.24 % ID/g
  % ID/g Muscle (individual mouse): 0.81 % ID/g and 1.12 % ID/g
  % ID/g Pancreas (individual mouse): 1.92 % ID/g and 2.71 % ID/g
  % ID/g Salivery gland (individual mouse): 2.81 % ID/g and 3.05 % ID/g
  % ID/g Small intestine (individual mouse): 2.60 % ID/g and 2.38 % ID/g
  % ID/g Spleen (individual mouse): 1.03 % ID/g and 0.97 % ID/g
  % ID/g Stomach (individual mouse): 0.72 % ID/g and 0.92 % ID/g
  % ID/g Tumor (individual mouse): 1.14 % ID/g
[2]
  % ID/g Bladder (individual mouse): 0.23 % ID/g and 0.67 % ID/g
  % ID/g Blood (individual mouse): 0.11 % ID/g and 9.26 % ID/g
  % ID/g Brain (individual mouse): 0.02 % ID/g and 0.04 % ID/g
  % ID/g Fat (individual mouse): 0.03 % ID/g and 0.21 % ID/g
  % ID/g Femur (individual mouse): 1.52 % ID/g and 1.50 % ID/g
  % ID/g Heart (individual mouse): 0.06 % ID/g and 0.07 % ID/g
  % ID/g Kidney (individual mouse): 0.41 % ID/g and 0.51 % ID/g
  % ID/g Large intestine (individual mouse): 0.08 % ID/g and 0.33 % ID/g
  % ID/g Liver (individual mouse): 9.42 % ID/g and 10.36 % ID/g
  % ID/g Lung (individual mouse): 0.13 % ID/g and 0.20 % ID/g
  % ID/g Mean Bladder: 0.43 % ID/g
  % ID/g Mean Blood: 4.68 % ID/g
  % ID/g Mean Brain: 0.03 % ID/g
  % ID/g Mean Fat: 0.12 % ID/g
  % ID/g Mean Femur: 1.51 % ID/g
  % ID/g Mean Heart: 0.07 % ID/g
  % ID/g Mean Kidney: 0.46 % ID/g
  % ID/g Mean Large intestine: 0.20 % ID/g
  % ID/g Mean Liver: 9.69 % ID/g
  % ID/g Mean Lung: 0.17 % ID/g
  % ID/g Mean Muscle: 0.06 % ID/g
  % ID/g Mean Pancreas: 0.13 % ID/g
  % ID/g Mean Salivary gland: 0.05 % ID/g
  % ID/g Mean Small intestine: 3.54 % ID/g
  % ID/g Mean Spleen: 0.16 % ID/g
  % ID/g Mean Stomach: 0.16 % ID/g
  % ID/g Mean Tumor: 0.10 % ID/g
  % ID/g Muscle (individual mouse): 0.04 % ID/g and 0.07 % ID/g
  % ID/g Pancreas (individual mouse): 0.05 % ID/g and 0.22 % ID/g
  % ID/g Salivery gland (individual mouse): 0.04 % ID/g and 0.06 % ID/g
  % ID/g Small intestine (individual mouse): 0.88 % ID/g and 6.19 % ID/g
  % ID/g Spleen (individual mouse): 0.08 % ID/g and 0.25 % ID/g
  % ID/g Stomach (individual mouse): 0.09 % ID/g and 0.23 % ID/g
  % ID/g Tumor (individual mouse): 0.08 % ID/g and 0.11 % ID/g
[3]
  % ID/g Bladder (individual mouse): 0.76 % ID/g and 0.92 % ID/g
  % ID/g Blood (individual mouse): 2.56 % ID/g and 4.57 % ID/g
  % ID/g Brain (individual mouse): 0.09 % ID/g and 0.12 % ID/g
  % ID/g Fat (individual mouse): 0.22 % ID/g and 0.12 % ID/g
  % ID/g Femur (individual mouse): 2.06 % ID/g and 2.07 % ID/g
  % ID/g Heart (individual mouse): 1.38 % ID/g and 1.73 % ID/g
  % ID/g Kidney (individual mouse): 0.79 % ID/g and 1.04 % ID/g
  % ID/g Large intestine (individual mouse): 0.61 % ID/g and 0.78 % ID/g
  % ID/g Liver (individual mouse): 7.41 % ID/g and 8.27 % ID/g
  % ID/g Lung (individual mouse): 1.70 % ID/g and 2.65 % ID/g
  % ID/g Mean Bladder: 0.84 % ID/g
  % ID/g Mean Blood: 3.57 % ID/g
  % ID/g Mean Brain: 0.10 % ID/g
  % ID/g Mean Fat: 0.22 % ID/g
  % ID/g Mean Femur: 2.07 % ID/g
  % ID/g Mean Heart: 1.56 % ID/g
  % ID/g Mean Kidney: 0.91 % ID/g
  % ID/g Mean Large intestine: 0.69 % ID/g
  % ID/g Mean Liver: 7.84 % ID/g
  % ID/g Mean Lung: 2.18 % ID/g
  % ID/g Mean Muscle: 0.98 % ID/g
  % ID/g Mean Pancreas: 2.07 % ID/g
  % ID/g Mean Salivary gland: 3.45 % ID/g
  % ID/g Mean Small intestine: 1.83 % ID/g
  % ID/g Mean Spleen: 0.93 % ID/g
  % ID/g Mean Stomach: 0.71 % ID/g
  % ID/g Mean Tumor: 2.23 % ID/g
  % ID/g Muscle (individual mouse): 1.03 % ID/g and 0.69 % ID/g
  % ID/g Pancreas (individual mouse): 1.96 % ID/g and 2.17 % ID/g
  % ID/g Salivery gland (individual mouse): 2.17 % ID/g and 4.73 % ID/g
  % ID/g Small intestine (individual mouse): 1.65 % ID/g and 2.01 % ID/g
  % ID/g Spleen (individual mouse): 0.78 % ID/g and 1.09 % ID/g
  % ID/g Stomach (individual mouse): 0.60 % ID/g and 0.81 % ID/g
  % ID/g Tumor (individual mouse): 2.99 % ID/g and 1.47 % ID/g
